Target: T1, BTK (Homo sapiens, UniProt Q06187)
T1 construct: purchased Thermo Fisher Scientific (Life Technologies) SelectScreen
Experiment: SelectScreen Z'LYTE
Assay type: biochemical
Method in brief: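 SelectScreen broad panel; activity (Z'LYTE, Adapta) plus binding formats. ATP: Km app for CSF1R Z'LYTE; 10 for CAMK1 Adapta. Readout = % per kinase.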

T1 sequence (Q06187 whole entry): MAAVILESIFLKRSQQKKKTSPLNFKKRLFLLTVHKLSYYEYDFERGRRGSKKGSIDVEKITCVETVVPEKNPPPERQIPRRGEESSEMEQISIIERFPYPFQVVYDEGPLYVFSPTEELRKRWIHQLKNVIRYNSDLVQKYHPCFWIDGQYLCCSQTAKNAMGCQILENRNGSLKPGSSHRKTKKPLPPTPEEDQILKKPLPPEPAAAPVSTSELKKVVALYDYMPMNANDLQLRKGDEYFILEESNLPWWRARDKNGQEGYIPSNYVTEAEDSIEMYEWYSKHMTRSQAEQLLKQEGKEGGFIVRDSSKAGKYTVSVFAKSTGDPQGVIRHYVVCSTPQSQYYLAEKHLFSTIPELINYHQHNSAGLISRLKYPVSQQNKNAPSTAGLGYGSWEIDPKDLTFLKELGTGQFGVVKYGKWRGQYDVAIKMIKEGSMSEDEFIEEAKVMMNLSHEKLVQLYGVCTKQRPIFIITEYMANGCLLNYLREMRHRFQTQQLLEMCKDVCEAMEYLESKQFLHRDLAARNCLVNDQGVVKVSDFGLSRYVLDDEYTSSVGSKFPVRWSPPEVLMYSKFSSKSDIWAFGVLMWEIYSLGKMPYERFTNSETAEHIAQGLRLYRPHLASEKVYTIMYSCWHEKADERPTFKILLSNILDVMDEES

In the case of `CN(C(=O)CN1CCOCC1)c1ccc2sc3c(-c4cccc5c(=O)cc(N6CC7CCC(C6)O7)oc45)cccc3c2c1` [NU5455], the inhibition at 1 µM is reported as -2%.

From paper PMC6934184, “Selective DNA-PKcs inhibition extends the therapeutic index of localized radiotherapy and chemotherapy” (The Journal of Clinical Investigation, 2019)
